Here are results for 13 compounds from patent US7314861B2, “Melanin-concentrating hormone analogs” (priority 2001, dated 2008).

Test [1] deals with T1, human MCH-1R (Homo sapiens, UniProt Q99705). Description: Aequorin bioluminescence functional assay, MCH-1R. The note with it: for MCH-1R Activation %: % Activation at 10 μM, aequorin functional assay.
Description: (§1) The aequorin bioluminescence assay can be used to measure the activity of G protein-coupled receptors that couple through the Gα protein subunit family consisting of Gq and G11. Such coupling leads to phospholipase C activation, intracellular calcium mobilization and protein kinase C activation.
(§2) Following approximately 40 hours of expression the apo-aequorin in the cells was charged for 4 hours with coelenterazine (10 μM) under reducing conditions (300 μM reduced glutathione) in ECB buffer (140 mM NaCl, 20 mM KCl, 20 mM HEPES-NaOH [pH=7.4], 5 mM glucose, 1 mM MgCl2, 1 mM CaCl2, 0.1 mg/ml bovine serum albumin).
(§3) The cells were harvested, washed once in ECB medium and resuspended to 500,000 cells/ml. 100 μl of cell suspension (corresponding to 5×10^4 cells) was then injected into the test plate containing MCH or MCH analogs, and the integrated light emission was recorded over 30 seconds, in 0.5 second units. 20 μL of lysis buffer (0.1% final Triton X-100 concentration) was then injected and the integrated light emission recorded over 10 seconds, in 0.5 second units. The “fractional response” values for each well were calculated by taking the ratio of the integrated response to the initial challenge to the total integrated luminescence including the Triton X-100 lysis response.
Another test has as its target human MCH-R2 (Homo sapiens, UniProt Q969V1). Description: Aequorin bioluminescence functional assay, MCH-2R. Conditions: for EC50: MCH-2R EC50 (nM); for EC50 / MCH-2R Activation %: aequorin functional assay; for MCH-2R Activation %: % Activation at 10 μM; for selective activity at MCH-2R over MCH-1R: greater binding and/or activation at MCH-2R than at MCH-1R.
The target in test [2] is T1, human MCH-1R. As to the kind of experiment: Radiolabeled MCH-R binding assay (SPA based), MCH-1R.
Description: (§4) Cell membranes were prepared on ice. Each T-75 flask was rinsed twice with 10 ml of Enzyme-free Cell Dissociation Buffer (Specialty Media, Lavallette, N.J.), and the cell monolayer was detached in an additional 10 ml of Enzyme-free Cell Dissociation Buffer by incubation at room temperature for 10 minutes. Dissociated cells were centrifuged (500×g for 10 minutes at 4° C.), resuspended in 5 ml homogenization buffer (10 mM Tris-HCl, pH 7.4, 0.01 mM Pefabloc, 10 μM phosphoramidon, 40 μg/ml bacitracin) and then homogenized using a glass homogenizer (10-15 strokes). The homogenate was centrifuged for 10 minutes (1,000×g at 4° C.). The resulting supernatant was then centrifuged at 38,700×g for 15 minutes at 4° C. Pelleted membranes were resuspended (passed through 25 gauge needle 5 times), snap-frozen on liquid nitrogen, and stored at −80° C. until use.
(§5) For the SPA-based assay, WGA-PVT beads (NEN Life Sciences Products) were resuspended in Dulbecco's PBS with calcium and magnesium (500 mg beads in 4 ml PBS). […] The suspension was mixed gently for 20 minutes, 12.3 ml of assay buffer and protease inhibitors were added (final concentration given): 2 μg/ml leupeptin, 10 μM phosphoramidon, 40 μg/ml bacitracin, 5 μg/ml aprotinin, 0.1 mM Pefabloc.
(§6) Coated beads were kept on ice until use. […] Binding reactions were allowed to proceed at room temperature for 3 hours. Quantitation was performed by scintillation counting (TopCount device).
A further test addresses human MCH-2R (Homo sapiens, UniProt Q969V1). As to the kind of experiment: Radiolabeled MCH-R binding assay (SPA based), MCH-2R. The note with it: MCH-2R IC50 (nM).
The mark [3] stands for this setting: Table 1, inhibition of [125I]-human MCH (Phe13, Tyr19) binding.

Where a SMILES comes first, the peptide text is derived from it. Bridges are numbered along the chain shown (N, C = ends). [ ]: non-standard residue; d: D form. Arg(NO2) = N=C(NCCC[C@H](N)C(=O)O)N[N+](=O)[O-]

T1 sequence (Q99705 whole entry): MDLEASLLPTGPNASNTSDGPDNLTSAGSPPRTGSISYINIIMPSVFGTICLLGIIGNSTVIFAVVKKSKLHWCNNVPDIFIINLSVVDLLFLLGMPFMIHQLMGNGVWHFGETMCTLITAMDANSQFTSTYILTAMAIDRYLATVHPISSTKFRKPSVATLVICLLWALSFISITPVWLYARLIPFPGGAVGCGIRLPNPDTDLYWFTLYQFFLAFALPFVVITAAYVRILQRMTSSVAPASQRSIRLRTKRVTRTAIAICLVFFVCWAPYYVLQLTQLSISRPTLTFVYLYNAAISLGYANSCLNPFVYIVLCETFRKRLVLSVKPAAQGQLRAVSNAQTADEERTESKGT
human MCH-2R, sequence (Q969V1 whole entry): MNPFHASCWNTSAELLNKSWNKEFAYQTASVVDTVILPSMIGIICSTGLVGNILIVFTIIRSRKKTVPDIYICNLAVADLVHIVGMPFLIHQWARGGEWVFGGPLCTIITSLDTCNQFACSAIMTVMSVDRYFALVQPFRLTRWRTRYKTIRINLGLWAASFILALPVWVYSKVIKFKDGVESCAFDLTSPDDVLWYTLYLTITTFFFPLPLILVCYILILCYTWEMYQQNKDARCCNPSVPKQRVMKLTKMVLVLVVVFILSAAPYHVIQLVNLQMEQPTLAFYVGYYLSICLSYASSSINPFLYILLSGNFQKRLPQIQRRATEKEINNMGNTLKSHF
human MCH-R2, sequence (Q969V1 whole entry): as above
Description for human MCH-2R: as §4, §5, §6
Description for human MCH-R2: as §1, §2, §3

What is called EC50 is the concentration giving half of the maximal effect. Low values mean greater potency, high ones weaker potency. One may read the IC50 as the concentration at which inhibition is half-maximal. Low values mean greater potency, high ones weaker potency. For the compound `CSCC[C@@H]1NC(=O)[C@@H](NC(=O)[C@H](CCCNC(=N)N)NC(=O)[C@H](CC(C)C)NC(=O)[C@H](CCSC)NC(=O)[C@H](CC(=O)O)NC(=O)[C@H](Cc2ccccc2)NC(=O)[C@@H](N)CC(=O)O)CSSC[C@@H](C(=O)N[C@@H](Cc2c[nH]c3ccccc23)C(=O)N[C@@H](CCC(N)=O)C(=O)N[C@H](C(=O)O)C(C)C)NC(=O)[C@@H]2CCCN2C(=O)[C@H](C)NC(=O)[C@H](Cc2ccc(O)cc2)NC(=O)[C@H](C(C)C)NC(=O)[C@H](CCCNC(=N)N)NC(=O)CNC(=O)[C@H](CC(C)C)NC1=O` [compound 52] (H-DFDMLRCMLGRVYAPCWQV-OH; disulfide 7-16; N-terminus and C-terminus assumed), at human MCH-1R [1] (Table 3), the “MCH-1R Activation %” value is listed as 97%. Also, at human MCH-R2 (Table 3), the response was half-maximal at 187 nM (EC50) and the “MCH-2R Activation %” value is given as 81%. Besides, at human MCH-1R [2], the IC50 is 1.4 nM.
Regarding `CSCC[C@H](NC(=O)[C@H](C)NC(=O)[C@H](Cc1ccccc1)NC(=O)[C@@H](N)CC(=O)O)C(=O)N[C@@H](CC(C)C)C(=O)N[C@@H](CCCNC(=N)N)C(=O)N[C@H]1CSSC[C@@H](C(=O)N[C@@H](Cc2c[nH]c3ccccc23)C(=O)N[C@@H](CCC(N)=O)C(=O)N[C@H](C(=O)O)C(C)C)NC(=O)[C@@H]2CCCN2C(=O)[C@H](CCCNC(=N)N)NC(=O)[C@H](Cc2ccc(O)cc2)NC(=O)[C@H](C(C)C)NC(=O)[C@H](CCCNC(=N)N)NC(=O)CNC(=O)[C@H](CC(C)C)NC(=O)[C@H](CCSC)NC1=O` [compound 43] (H-DFAMLRCMLGRVYRPCWQV-OH; disulfide 7-16; N-terminus and C-terminus assumed), the “MCH-1R Activation %” value on human MCH-1R [1] (Table 3) is 97%. For the same compound, the “MCH-2R Activation %” value at human MCH-R2 (Table 3) amounted to 95%. This compound also had an IC50 on human MCH-1R [2] of 0.5 nM.
As to `CSCC[C@@H]1NC(=O)[C@@H](NC(=O)[C@H](CCCNC(=N)N)NC(C)=O)CSSC[C@@H](C(N)=O)NC(=O)[C@@H]2CCCN2C(=O)[C@H](CCCNC(=N)N)NC(=O)[C@H](Cc2ccc(O)cc2)NC(=O)[C@H](C(C)C)NC(=O)[C@H](CCCNC(=N)N)NC(=O)[C@@H](CO)NC(=O)[C@H](CC(C)C)NC1=O` [compound 19], the “MCH-1R Activation %” value at human MCH-1R [1] (Table 1) stood at 47%. In addition, the “MCH-2R Activation %” value at human MCH-R2 (Table 1) is given as 113%. In addition, at human MCH-R2, the “selective activity at MCH-2R over MCH-1R” value is given as “selectively active”. The IC50 at human MCH-1R [2] stood at 31 nM.
Regarding `CSCC[C@@H]1NC(=O)[C@@H](NC(=O)[C@H](CCCNC(=N)N)NC(C)=O)CSSC[C@@H](C(N)=O)NC(=O)[C@@H]2CCCN2C(=O)[C@H](CCCNC(=N)N)NC(=O)[C@H](Cc2ccc(O)cc2)NC(=O)[C@H](C(C)C)NC(=O)[C@H](C)NC(=O)CNC(=O)[C@H](CC(C)C)NC1=O` [compound 23] (Ac-RCMLGAVYRPC-NH2; disulfide 2-11), the EC50 at human MCH-1R [1] was > 10000 nM; on human MCH-R2 (Table 1, 293-AEQ17 cells) it was > 1000 nM. On human MCH-R2 (Table 1), the “MCH-2R Activation %” value stood at 36%. At human MCH-R2, the “selective activity at MCH-2R over MCH-1R” value is listed as “selectively active”. Further, the IC50 at human MCH-1R [2] was > 1000 nM.
`CC(=O)N[C@@H](CCCNC(=N)N)C(=O)N[C@H]1CSSC[C@@H](C(N)=O)NC(=O)[C@@H]2CCCN2C(=O)[C@H](CCCNC(=N)N)NC(=O)[C@H](Cc2ccc(O)cc2)NC(=O)[C@H](C(C)C)NC(=O)[C@H](CCCNC(=N)N)NC(=O)CNC(=O)[C@H](CC(C)C)NC(=O)[C@H](C)NC1=O` [compound 4] (Ac-RCALGRVYRPC-NH2; disulfide 2-11): the “MCH-1R Activation %” value at human MCH-1R [1] (Table 1) is reported as 42%. Besides, the EC50 on human MCH-R2 (Table 1, 293-AEQ17 cells) was found to be 12 nM. Moreover, at human MCH-R2 (Table 1), the “MCH-2R Activation %” value is on record as 104%. Moreover, the “selective activity at MCH-2R over MCH-1R” value at human MCH-R2 is “selectively active”. On human MCH-1R [2], this compound yielded an IC50 of 15 nM.
For the compound `CSCC[C@@H]1NC(=O)[C@@H](NC(=O)[C@@H](N)CCCNC(=N)N)CSSC[C@@H](C(N)=O)NC(=O)[C@@H]2CCCN2C(=O)[C@H](CCCNC(=N)N)NC(=O)[C@H](Cc2ccc(O)cc2)NC(=O)[C@H](C(C)C)NC(=O)[C@H](CCCNC(=N)N)NC(=O)CNC(=O)[C@H](CC(C)C)NC1=O` [compound 39], the EC50 is 14 nM at human MCH-1R [1] and 11.6 nM on human MCH-R2 (Table 2). In addition, on human MCH-1R [1] (Table 2), the “MCH-1R Activation %” value was 106%. The values for the IC50 at human MCH-2R (Table 2) and on human MCH-1R [2] were 11 nM and 0.13 nM, respectively. For the same compound, at human MCH-R2 (Table 2), the “MCH-2R Activation %” value was 109%.
Consider `CSCC[C@@H]1NC(=O)[C@@H](NC(=O)[C@H](CCCNC(=N)N)NC(=O)[C@H](CC(C)C)NC(=O)[C@H](CCSC)NC(=O)[C@H](CC(=O)O)NC(=O)[C@H](Cc2ccccc2)NC(=O)[C@@H](N)CC(=O)O)CSSC[C@@H](C(=O)N[C@@H](Cc2ccc(O)cc2)C(=O)N[C@@H](CCC(N)=O)C(=O)N[C@H](C(=O)O)C(C)C)NC(=O)[C@@H]2CCCN2C(=O)[C@H](CCCNC(=N)N)NC(=O)[C@H](Cc2ccccc2)NC(=O)[C@H](C(C)C)NC(=O)[C@H](CCCNC(=N)N)NC(=O)CNC(=O)[C@H](CC(C)C)NC1=O` [compound 57] (H-DFDMLRCMLGRVFRPCYQV-OH; disulfide 7-16; N-terminus and C-terminus assumed), for which the “MCH-1R Activation %” value on human MCH-1R [1] (Table 3) is recorded as 97%. Besides, at human MCH-R2 (Table 3), the EC50 is 1.5 nM and the “MCH-2R Activation %” value amounted to 92%. This compound had an IC50 at human MCH-1R [2] of 0.6 nM.
On to `CSCC[C@@H]1NC(=O)[C@@H](NC(=O)[C@H](CCCNC(=N)N)NC(=O)[C@H](CC(C)C)NC(=O)[C@H](CCSC)NC(=O)[C@H](CC(=O)O)NC(=O)[C@H](Cc2ccccc2)NC(=O)[C@@H](N)CC(=O)O)CSSC[C@@H](C(=O)N[C@@H](Cc2c[nH]c3ccccc23)C(=O)N[C@@H](CCC(N)=O)C(=O)N[C@H](C(=O)O)C(C)C)NC(=O)[C@@H]2CCCN2C(=O)[C@H](CCCNC(=N)N)NC(=O)[C@H](Cc2ccc(O)cc2)NC(=O)[C@H](C(C)C)NC(=O)[C@H](CCCNC(=N)N)NC(=O)CNC(=O)[C@H](C)NC1=O` [compound 48] (H-DFDMLRCMAGRVYRPCWQV-OH; disulfide 7-16; N-terminus and C-terminus assumed), for which the “MCH-1R Activation %” value at human MCH-1R [1] (Table 3) was 96%. Moreover, the IC50 at human MCH-2R (Table 3) amounted to 9.5 nM; at human MCH-1R [2], 0.9 nM. Besides, the “MCH-2R Activation %” value at human MCH-R2 (Table 3) is reported as 92%.
Regarding `CSCC[C@@H]1NC(=O)[C@@H](NC(=O)[C@H](CCCNC(=N)N)NC(=O)[C@H](CC(C)C)NC(=O)[C@H](CCSC)NC(=O)[C@H](CC(=O)O)NC(=O)[C@H](Cc2ccccc2)NC(=O)[C@@H](N)CC(=O)O)CSSC[C@@H](C(=O)N[C@@H](Cc2c[nH]c3ccccc23)C(=O)N[C@@H](CCC(N)=O)C(=O)N[C@H](C(=O)O)C(C)C)NC(=O)[C@@H]2CCCN2C(=O)[C@H](CCCNC(=N)N)NC(=O)[C@H](Cc2ccc(O)cc2)NC(=O)[C@H](C)NC(=O)[C@H](CCCNC(=N)N)NC(=O)CNC(=O)[C@H](CC(C)C)NC1=O` [compound 50] (H-DFDMLRCMLGRAYRPCWQV-OH; disulfide 7-16; N-terminus and C-terminus assumed), the “MCH-1R Activation %” value at human MCH-1R [1] (Table 3) is recorded as 95%. For the same compound, the IC50 at human MCH-2R (Table 3) worked out at 25 nM; at human MCH-1R [2], 0.9 nM. Besides, the “MCH-2R Activation %” value at human MCH-R2 (Table 3) stood at 98%.
Take `CCCC[C@@H]1NC(=O)CNC(=O)[C@H](CC(C)C)NC(=O)[C@H](CCSC)NC(=O)[C@@H](NC(=O)[C@H](CCCNC(=N)N)NC(C)=O)CSSC[C@@H](C(N)=O)NC(=O)[C@@H]2CCCN2C(=O)[C@H](CCCNC(=N)N)NC(=O)[C@H](Cc2ccc(O)cc2)NC(=O)[C@H](C(C)C)NC1=O` [compound 26]: on human MCH-1R [1], the EC50 was > 1000 nM. Moreover, on human MCH-2R (setting [3]), the IC50 stood at 9 nM. For the same compound, the “MCH-2R Activation %” value on human MCH-R2 (Table 1) stood at 34%. On human MCH-R2, the “selective activity at MCH-2R over MCH-1R” value is listed as “selectively active”.
As to `CSCC[C@@H]1NC(=O)[C@@H](NC(=O)[C@H](CCCNC(=N)N)NC(C)=O)CSSC[C@@H](C(N)=O)NC(=O)[C@@H]2CCCN2C(=O)[C@H](CCCNC(=N)N)NC(=O)[C@H](Cc2ccc(O)cc2)NC(=O)[C@H](C(C)C)NC(=O)[C@H](CCCNC(=N)N[N+](=O)[O-])NC(=O)[C@@H](C)NC(=O)[C@H](CC(C)C)NC1=O` [compound 37] (Ac-RCML[dA][Arg(NO2)]VYRPC-NH2; disulfide 2-11), the EC50 at human MCH-1R [1] was > 10000 nM. Moreover, the “MCH-1R Activation %” value at human MCH-1R [1] (Table 1) worked out at 0.1%. Further, on human MCH-R2 (Table 1), the “MCH-2R Activation %” value came to 34%. Also, at human MCH-1R [2], the IC50 is > 1000 nM.
Regarding `CSCC[C@@H]1NC(=O)[C@@H](NC(=O)[C@H](CCCNC(=N)N)NC(C)=O)CSSC[C@@H](C(N)=O)NC(=O)[C@@H]2CCCN2C(=O)[C@H](CCCNC(=N)N)NC(=O)[C@H](Cc2ccccc2)NC(=O)[C@H](C(C)C)NC(=O)[C@H](CCCNC(=N)N)NC(=O)CNC(=O)[C@H](CC(C)C)NC1=O` [compound 27], the “MCH-1R Activation %” value at human MCH-1R [1] (Table 1) came out at 96%. The compound also returned an IC50 at human MCH-2R (setting [3]) of 1.5 nM. The compound also had an EC50 on human MCH-R2 (Table 1, 293-AEQ17 cells) of 12 nM. The “MCH-2R Activation %” value on human MCH-R2 (Table 1) was 94%.
As to `CSCC[C@@H]1NC(=O)[C@@H](NC(=O)[C@H](CCCNC(=N)N)NC(=O)[C@H](CC(C)C)NC(=O)[C@H](C)NC(=O)[C@H](CC(=O)O)NC(=O)[C@H](Cc2ccccc2)NC(=O)[C@@H](N)CC(=O)O)CSSC[C@@H](C(=O)N[C@@H](Cc2c[nH]c3ccccc23)C(=O)N[C@@H](CCC(N)=O)C(=O)N[C@H](C(=O)O)C(C)C)NC(=O)[C@@H]2CCCN2C(=O)[C@H](CCCNC(=N)N)NC(=O)[C@H](Cc2ccc(O)cc2)NC(=O)[C@H](C(C)C)NC(=O)[C@H](CCCNC(=N)N)NC(=O)CNC(=O)[C@H](CC(C)C)NC1=O` [compound 44] (H-DFDALRCMLGRVYRPCWQV-OH; disulfide 7-16; N-terminus and C-terminus assumed), the “MCH-1R Activation %” value at human MCH-1R [1] (Table 3) worked out at 97%. Also, the “MCH-2R Activation %” value on human MCH-R2 (Table 3) is 100%. For the same compound, the IC50 at human MCH-1R [2] is 0.5 nM.
